This note sets out measurements from patent US10144730B2, “Inhibitors of c-Jun-N-terminal kinase (JNK)” (Dana-Farber Cancer Institute, Inc., priority 2011, dated 2018).

Bounds are passed on as bounds.

Assay [1] concerns the target JNK3 (Homo sapiens, UniProt P53779). In words: Biochemical JNK3 kinase inhibition (Z'-lyte format). The settings on record: Table 2.
Assay [2] concerns c-Jun phosphorylation. In words: LanthaScreen TR-FRET cell assay for c-Jun phosphorylation in HeLa cells. It is filed as cell-based. The conditions noted are these: Homo sapiens; for IC50: HeLa cells, rounded values of the text, read-out: IC50 for inhibiting c-Jun phosphorylation in HeLa cells; for EC50: Hela cells, TNF-α stimulation, read-out: p-c-Jun EC50 (nM) Hela. As for the experimental part: Phosphorylation was determined by measuring the time resolved FRET (TR-FRET) between a terbium labeled phospho-c-Jun specific antibody and GFP. The cells were plated in white tissue culture treated 384 well plates at a density of 10,000 cell per well in 32 μL assay medium (Opti-MEM®, supplemented with 0.5% charcoal/dextran-treated FBS, 100 U/ml penicillin and 100 μg/ml streptomycin, 0.1 mM nonessential amino acids, 1 mM sodium pyruvate, 25 mM Hepes, pH 7.3, and lacking phenol red). After overnight incubation, cells were pretreated for 90 minutes with compound (at indicated concentration) diluted in 4 μL assay buffer followed by 30 min of stimulation with 5 ng/ml of TNF-α in 4 μL assay buffer (final assay volume was 40 μl). The medium was then removed by aspiration, and the cells were lysed by adding 20 μl of lysis buffer (20 mM Tris-HCl, pH 7.6, 5 mM EDTA, 1% Nonidet P-40 substitute, 5 mM NaF, 150 mM NaCl, and 1:100 protease and phosphatase inhibitor mix, SIGMA P8340 and P2850, respectively). The lysis buffer included 2 nM of the terbium-labeled anti-c-Jun (pSer73) detection antibodies (Life Technologies). After allowing the assay to equilibrate for 60 minutes at room temperature, TR-FRET emission ratios were determined on a BMG Pherastar fluorescence plate reader (BMG Labtech, Cary, N.C.) using the following parameters: excitation at 340 nm; emission at 520 nm and 490 nm; 100 μs lag time; 200 μs integration time; and emission ratio=Em520/Em490. All data were analyzed and plotted using Graphpad Prism 4.
(§1) In parallel with biochemical evaluation, the ability of the compounds to inhibit JNK activity in cells was investigated using two independent assays formats. This is a critical issue because there are several reported JNK inhibitors with nanomolar biochemical potency that translate into micromolar cellular inhibitors. The most well characterized direct phosphorylation substrate of JNK is the transcription factor c-Jun.
In general terms: Time-resolved FRET reads energy transfer from a long-lived donor to a nearby acceptor.

Assay [3] concerns c-Jun phosphorylation. In words: High throughput microscopy of c-Jun phosphorylation in A375 cells. The assay is classed as cell-based. The settings on record: Homo sapiens, A-375; for IC50: rounded values of the text, read-out: IC50 for inhibiting c-Jun phosphorylation in A375 cells. On the procedure: Cells were fixed in 2% paraformaldehyde for 10 min at room temperature and washed with PBS-T (Phosphate Buffered Saline, 0.1% Tween 20). Cells were permeabilized in methanol for 10 min at room temperature, washed with PBS-T, and blocked in Odyssey Blocking Buffer (LI-COR Biosciences) for 1 hour at room temperature. Cells were incubated overnight at 4° C. with antibody specific for Erk1/2(pT202/pY204), Akt(pS473), c-Jun(pS73), pP38(T180/Y182) and pSTAT3(Y705) (Cell Signaling Technology), pRSK1(S380) and pMSK1(S376) (Epitomics), and NF-κB (Santa Cruz Biotechnology) diluted 1:400 in Odyssey Blocking Buffer. […] Cells were washed twice with PBS and imaged in an imageWoRx high-throughput microscope (Applied Precision). Data were plotted using DataPflex.
as §1

Assay [4] deals with JNK. In words: Binding kinetics (pulse-chase) assay, ATP-biotin labeling of JNK in A375 cells. The settings on record: 1 μM compound. It is filed as cell-based. As for the experimental part:
A375 cells were incubated with inhibitors for the indicated amount of time after which cell lysates were prepared and labeled with ATP-biotin. Biotinylated proteins were pulled down with streptavidin beads and material bound to the beads was eluted and separate by SDS-PAGE followed by Western blot analysis for JNK.
A375 cells (ATCC® CRL-1619™) were pre-treated with 1 μM compound for the indicated amounts of time. Remove the medium and wash 3 times with PBS. Resuspend the cell pellet with 1 mL Lysis Buffer (1% NP-40, 1% CHAPS, 25 mM Tris, 150 mM NaCl, Phosphatase Inhibitor Cocktail, Roche 04906845001, and Protease Inhibitor Cocktail Roche 11836170001). Rotate end-to-end for 30 min at 4° C. Lysates were cleared by centrifugation at 14000 rpm for 15 min in the Eppendorf. The cleared lysates gel filtered into Kinase Buffer (0.1% NP-40, 20 mM HEPES, 150 mM NaCl, Phosphatase Inhibitor Cocktail, and Protease Inhibitor Cocktail) using Bio-Rad 10DG colums. The total protein concentration of the gel-filtered lysate should be around 5-15 mg/ml. […]
In order to evaluate the kinetics with which JNK-IN-5 could covalently modify JNK in cells, a pulse-chase assay was developed . […] Streptavidin affinity chromatography is then used to isolate all biotinylated proteins and JNK protein is detected following SDS-PAGE and Western blotting (FIG. 8). […]

Assay [5] deals with JNK2 (Homo sapiens, UniProt P45984). In words: Biochemical JNK2 kinase inhibition (Z'-lyte format). The settings on record: Table 2.
JNK2, sequence (P45984 whole entry): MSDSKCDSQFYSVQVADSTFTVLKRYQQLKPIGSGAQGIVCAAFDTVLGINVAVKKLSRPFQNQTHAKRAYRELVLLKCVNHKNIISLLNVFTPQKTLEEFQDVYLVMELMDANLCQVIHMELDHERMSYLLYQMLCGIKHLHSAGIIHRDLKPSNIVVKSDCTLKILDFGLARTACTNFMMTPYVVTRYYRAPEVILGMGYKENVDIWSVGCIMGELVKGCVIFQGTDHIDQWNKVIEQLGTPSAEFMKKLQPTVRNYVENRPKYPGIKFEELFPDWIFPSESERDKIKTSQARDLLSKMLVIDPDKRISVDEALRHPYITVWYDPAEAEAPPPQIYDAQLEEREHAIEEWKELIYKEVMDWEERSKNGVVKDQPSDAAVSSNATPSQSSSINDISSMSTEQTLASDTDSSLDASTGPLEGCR
Assay [6] has as its target JNK1 (Homo sapiens, UniProt P45983). In words: Biochemical JNK1 kinase inhibition (Z'-lyte format). The settings on record: Table 2.
Assay [7] relates to phosphorylation of Erk. In words: High-throughput microscopy, phosphorylation of Erk. It is filed as cell-based. The conditions noted are these: Homo sapiens, A-375, A375 cells, anisomycin stimulation, read-out: Cellular EC50 pErk. As for the experimental part: (§2) A375 cells were stimulated with anisomycin (FIGS. 14A and 14C to 14F), IGF-1 (FIG. 14B), IL-6 (FIG. 14G), and TNF-α (FIG. 14H) for sixty minutes. The output of multiple signaling pathways was measured using high throughput microscopy at multiple concentrations of four JNK inhibitors and a control compound specific to each pathway DMSO (FIG. 14A), MK2206 (allosteric Akt inhibitor, Haoyuan Chemexpress Co., Limited. Hirai, et al., 2010) (FIG. 14B), PD0325901 (allosteric Mek inhibitor, Haoyuan Chemexpress Co., Limited. Barrett, et al., 2008) (FIGS. 14C and 14D), SB239063 (ATP-competitive p38 inhibitor, Haoyuan Chemexpress Co., Limited. Underwood et al., 2000) (FIGS. 14E and 14F), KIN001-040 (ATP-competitive JAK1,2,3 inhibitor, Haoyuan Chemexpress Co., Limited. Thompson et al., 2002) (FIG. 14G), and KIN001-208 (IKK inhibitor VIII, Haoyuan Chemexpress Co., Limited., Murata, et al., 2004) (FIG. 14H).
(§3) Cells were plated at 7500 cells/well in 96-well microscopy plates (Corning) in recommended media for 24 hours, and then starved in media lacking serum for 16 hours. Cells were pre-treated for 180 minutes with 10-fold stock solutions of JNK inhibitors and for 10 min with control compounds MK2206, PD0325901, SB239063, KIN040, and KIN208 and treated with 10-fold stock solutions of IGF-1, IL-6, TNF-α (all PeproTech), or anisomycin for 60 minutes. Cells were fixed in 2% paraformaldehyde for 10 min at room temperature and washed with PBS-T (Phosphate Buffered Saline, 0.1% Tween 20). Cells were permeabilized in methanol for 10 min at room temperature, washed with PBS-T, and blocked in Odyssey Blocking Buffer (LI-COR Biosciences) for 1 hour at room temperature. Cells were incubated overnight at 4° C. with antibody specific for Erk1/2(pT202/pY204), Akt(pS473), c-Jun(pS73), pP38(T180/Y182) and pSTAT3(Y705) (Cell Signaling Technology), pRSK1(S380) and pMSK1(S376) (Epitomics), and NF-κB (Santa Cruz Biotechnology) diluted 1:400 in Odyssey Blocking Buffer. Cells were washed three times in PBS-T and incubated with rabbit-specific secondary antibody labeled with Alexa Fluor 647 (Invitrogen) diluted 1:2000 in Odyssey Blocking Buffer. Cells were washed once in PBS-T and once in PBS and incubated in 250 ng/ml Hoechst 33342 (Invitrogen) and 1:1000 Whole Cell Stain (blue; Thermo Scientific) solution. Cells were washed twice with PBS and imaged in an imageWoRx high-throughput microscope (Applied Precision). Data were plotted using DataPflex. […]

Assay [8] concerns phosphorylation of p38. In words: High-throughput microscopy, phosphorylation of p38. It is filed as cell-based. The conditions noted are these: Homo sapiens, A-375, A375 cells, anisomycin stimulation, read-out: Cellular EC50 pP38. On the procedure: as §2, §3
For assay [9], the system named is phosphorylation of Akt. In words: High-throughput microscopy, phosphorylation of Akt. It is filed as cell-based. The conditions noted are these: Homo sapiens, A-375, A375 cells, IGF-1 stimulation, read-out: Cellular EC50 pAkt. As for the experimental part: as §2, §3
The test system of assay [10] is NF-kB nuclear translocation. In words: High-throughput microscopy, NF-kB nuclear translocation. The settings on record: Homo sapiens, A-375, A375 cells, TNF-α stimulation, read-out: Cellular EC50 NF-kB. It is filed as cell-based. On the procedure:
as §2, §3

The test system of assay [11] is phosphorylation of STAT3. In words: High-throughput microscopy, phosphorylation of STAT3. The assay is classed as cell-based. The conditions noted are these: Homo sapiens, A-375, A375 cells, IL-6 stimulation, read-out: Cellular EC50 pSTAT3. As for the experimental part:
as §2, §3

Assay [12] has as its system phosphorylation of RSK. In words: High-throughput microscopy, phosphorylation of RSK. It is filed as cell-based. The conditions noted are these: Homo sapiens, A-375, A375 cells, anisomycin stimulation, read-out: Cellular EC50 pRSK. On the procedure:
as §2, §3

Where [13] appears, read: A375 cells, anisomycin stimulation, read-out: p-c-Jun EC50 (nM) A375.
Where [14] appears, read: Table 5, A375, read-out: E50/A375.

JNK3, sequence (P53779 whole entry): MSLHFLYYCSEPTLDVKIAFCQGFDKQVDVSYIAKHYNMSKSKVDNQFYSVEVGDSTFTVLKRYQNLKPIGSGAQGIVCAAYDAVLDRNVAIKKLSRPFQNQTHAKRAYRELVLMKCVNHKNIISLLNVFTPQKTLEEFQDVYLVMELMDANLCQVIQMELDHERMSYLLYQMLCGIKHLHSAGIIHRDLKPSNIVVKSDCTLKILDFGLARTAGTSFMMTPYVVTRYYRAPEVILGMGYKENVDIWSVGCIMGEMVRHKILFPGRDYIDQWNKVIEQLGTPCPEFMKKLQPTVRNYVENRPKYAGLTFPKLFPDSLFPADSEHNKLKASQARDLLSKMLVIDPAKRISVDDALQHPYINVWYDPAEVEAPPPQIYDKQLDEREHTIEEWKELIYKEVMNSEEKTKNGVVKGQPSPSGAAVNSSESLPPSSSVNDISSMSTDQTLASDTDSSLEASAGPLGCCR
JNK1, sequence (P45983 whole entry): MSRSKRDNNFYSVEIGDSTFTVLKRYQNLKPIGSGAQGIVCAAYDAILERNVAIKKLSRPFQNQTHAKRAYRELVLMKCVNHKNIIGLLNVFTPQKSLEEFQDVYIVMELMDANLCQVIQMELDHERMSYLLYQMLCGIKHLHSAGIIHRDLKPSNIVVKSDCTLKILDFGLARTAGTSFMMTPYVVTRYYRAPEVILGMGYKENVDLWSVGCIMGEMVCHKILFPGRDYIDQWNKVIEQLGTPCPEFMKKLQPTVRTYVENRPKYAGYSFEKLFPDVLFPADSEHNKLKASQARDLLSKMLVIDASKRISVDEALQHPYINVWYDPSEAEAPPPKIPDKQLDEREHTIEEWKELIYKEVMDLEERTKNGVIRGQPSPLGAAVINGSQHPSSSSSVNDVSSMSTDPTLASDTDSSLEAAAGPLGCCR

Turning to `C=CC(=O)Nc1cccc(C(=O)Nc2ccc(Nc3nccc(-c4cccnc4)n3)cc2)c1` [JNK-IN-5], the IC50 (as a rule, the concentration that inhibits the measured activity by half) is 0.96 nM in [1]; around 0.1 µM in [2]; around 0.03 µM in [3] (A375 cells); 1.93 nM in [5]; 2.11 nM in [6]. The EC50 was determined as 118 nM in [2], 32 nM in assay [3] (setting [13]) and 32 nM in [3] (setting [14]). In assay [4], the “incubation time to fully protect JNK from labeling by ATP-biotin” value is “approximately three”.
In [1], `Cc1ccc(NC(=O)/C=C/CN(C)C)cc1C(=O)Nc1ccc(Nc2nccc(-c3cccnc3)n2)cc1` [JNK-IN-9] gave a half-maximal inhibitory concentration (IC50) of 0.5 nM. The EC50 in assay [2] is 104 nM; in [3] (setting [13]), 117 nM.
For `Cc1ccc(C(=O)Nc2ccc(Nc3nccc(-c4cccnc4)n3)cc2)cc1NC(=O)/C=C/CN(C)C` [JNK-IN-10] the same measures were 0.5 nM, 173 nM and 141 nM.
For `CN(C)C/C=C/C(=O)Nc1cccc(C(=O)Nc2ccc(Nc3nccc(-c4c(-c5ccccc5)nn5ccccc45)n3)cc2)c1` [JNK-IN-11], the concentration for half-maximal inhibition (IC50) in [1] is 0.5 nM; in assay [2], around 0.03 µM; in assay [3] (A375 cells) it was around 0.01 µM; in assay [5] it was 0.5 nM; in assay [6], 1.34 nM. Further, the EC50 is 48 nM in [2]; 0.019 µM in [7]; 0.015 µM in [8]; above 10 µM in assay [9]; below 10 nM in assay [3] (A375 cells, anisomycin stimulation, high-throughput microscopy, Table 4, read-out: Cellular EC50 pc-Jun); 8.6 nM in assay [3] (setting [13]). Also, the figures for the EC50 in assay [10], in [11] and in assay [12] were above 10 µM, above 10 µM and 0.02 µM, respectively.
`Oc1c2ccccc2c2c3c(cccc13)N=N2` [SP-600125, reference compound]: the EC50 in [2] turned out to be 7450 nM; in [3] (setting [13]), 1980 nM.
For the compound `C=CC(=O)Nc1ccc(C(=O)Nc2cccc(Nc3nccc(-c4cccnc4)n3)c2)cc1` [ZG-9], in assay [3] (setting [14]), the EC50 is 5460 nM.
On to `CN(C)C/C=C/C(=O)Nc1ccc(C(=O)Nc2cccc(Nc3nccc(-c4cccnc4)n3)c2)cc1` [ZG-10], for which the EC50 in assay [3] (setting [14]) came out at 2400 nM.
